Experimental data reported in patent publication EP0908457B1, “3-(1,2-benzisothiazol- and isoxazol-5-Y1)-2,4(1H,3H)-pyrimidinedione or thione and 3-(1,2-benzisothiazol- and isoxazol-5-y1)-4(3H)-pyrimidinone or thione herbicidal agents” (BASF AKTIENGESELLSCHAFT, priority 1997, dated 1999).

Experiments:
[1] = system: Oryza sativa, (L.) Tebonnet; assay: Rice tolerance to post-transplant applications under flooded paddy conditions (Example 188), ORYSAT (Rice, Tebonnet); conditions: rated three to four weeks after treatment
Sagittaria pygmaea, L. [2] = assay: Preemergence weed control under flooded paddy conditions, SAGPY (Arrowhead (Pygmaea)); format: in vivo; conditions: preemergence, flooded paddy, rated three to four weeks after treatment; further: meaning of each grade not given here
[3] = system: Echinochloa oryzoides (Ard.) Fritsch.; assay: Postemergence weed control under flooded paddy conditions, ECHORC (Watergrass (Calif.)); format: in vivo; conditions: rated three to four weeks after treatment
[4] = system: Echinochloa oryzoides (Ard.) Fritsch.; assay: Preemergence weed control under flooded paddy conditions, ECHORC (Watergrass (Calif.)); format: in vivo; conditions: preemergence, flooded paddy, rated three to four weeks after treatment; further: meaning of each grade not given here
Sagittaria pygmaea, L. [5] = assay: Postemergence weed control under flooded paddy conditions, SAGPY (Arrowhead (Pygmaea)); format: in vivo; conditions: rated three to four weeks after treatment
Cyperus iria [6] = assay: Preemergence weed control under flooded paddy conditions, CYPIR (Rice Flatsedge); format: in vivo; conditions: preemergence, flooded paddy, rated three to four weeks after treatment; further: meaning of each grade not given here
[7] = system: Cyperus serotinus, Rottb.; assay: Postemergence weed control under flooded paddy conditions, CYPSE (Flatsedge); format: in vivo; conditions: rated three to four weeks after treatment
[8] = system: Monochoria vaginalis, Presl.; assay: Preemergence weed control under flooded paddy conditions, MOOVA (Monochoria); format: in vivo; conditions: preemergence, flooded paddy, rated three to four weeks after treatment; further: meaning of each grade not given here
[9] = system: Cyperus serotinus, Rottb.; assay: Preemergence weed control under flooded paddy conditions, CYPSE (Flatsedge); format: in vivo; conditions: preemergence, rated three to four weeks after treatment; further: meaning of each grade not given here
[10] = system: Monochoria vaginalis, Presl.; assay: Postemergence weed control under flooded paddy conditions, MOOVA (Monochoria); format: in vivo; conditions: rated three to four weeks after treatment
Cyperus iria [11] = assay: Postemergence weed control under flooded paddy conditions, CYPIR (Rice Flatsedge); format: in vivo; conditions: rated three to four weeks after treatment
[12] = system: Oryza sativa, (L.) Tebonnet; assay: Rice tolerance to post-transplant applications under flooded paddy conditions (Example 187), ORYSAT (Rice, Tebonnet); conditions: rated three to four weeks after treatment

Compound: COC(=O)C(C)Oc1cc(C)c(C)cc1-c1nsc2ccc(-n3c(=O)cc(C(F)(F)F)n(C)c3=O)cc12 (stereo not drawn) [Example 13, Methyl 2-{{6-{5-[3,6-dihydro-3-methyl-4-(trifluoromethyl)-2,6-dioxo-1(2H)-pyrimidinyl]-1,2-benzisothiazol-3-yl}-3,4-xylyl}oxy}propionate]
- herbicidal effect rating, ORYSAT (rice tolerance) ([1]; Rate 0.0313 kg/ha): 2.0
- herbicidal effect rating, ORYSAT (rice tolerance) ([1]; Rate 0.0625 kg/ha): 2.0
- herbicidal effect rating, ORYSAT (rice tolerance) ([1]; Rate 0.1250 kg/ha): 4.0
- herbicidal effect rating, ORYSAT (rice tolerance) ([1]; Rate 0.2500 kg/ha): 4.0
- herbicidal effect rating, ORYSAT (rice tolerance) ([1]; Rate 0.5000 kg/ha): 7.0
- herbicidal effect rating, SAGPY (Sagittaria pygmaea, L. [2]; 0.0313 kg/ha): 0.0
- herbicidal effect rating, SAGPY (Sagittaria pygmaea, L. [2]; 0.0625 kg/ha): 2.0
- herbicidal effect rating, SAGPY (Sagittaria pygmaea, L. [2]; 0.1250 kg/ha): 6.0
- herbicidal effect rating, SAGPY (Sagittaria pygmaea, L. [2]; 0.2500 kg/ha): 8.0
- herbicidal effect rating, SAGPY (Sagittaria pygmaea, L. [2]; 0.5000 kg/ha): 9.0
- herbicidal effect rating, ECHORC ([3]; Rate 0.0313 kg/ha): 0.0
- herbicidal effect rating, ECHORC ([3]; Rate 0.0625 kg/ha): 2.0
- herbicidal effect rating, ECHORC ([3]; Rate 0.1250 kg/ha): 6.0
- herbicidal effect rating, ECHORC ([3]; Rate 0.2500 kg/ha): 8.0
- herbicidal effect rating, ECHORC ([3]; Rate 0.5000 kg/ha): 9.0
- herbicidal effect rating, ECHORC ([4]; 0.0313 kg/ha): 9.0
- herbicidal effect rating, ECHORC ([4]; 0.0625 kg/ha): 9.0
- herbicidal effect rating, ECHORC ([4]; 0.1250 kg/ha): 9.0
- herbicidal effect rating, ECHORC ([4]; 0.2500 kg/ha): 9.0
- herbicidal effect rating, ECHORC ([4]; 0.5000 kg/ha): 9.0
- herbicidal effect rating, SAGPY (Sagittaria pygmaea, L. [5]; Rate 0.0313 kg/ha): 0.0
- herbicidal effect rating, SAGPY (Sagittaria pygmaea, L. [5]; Rate 0.0625 kg/ha): 0.0
- herbicidal effect rating, SAGPY (Sagittaria pygmaea, L. [5]; Rate 0.1250 kg/ha): 2.0
- herbicidal effect rating, SAGPY (Sagittaria pygmaea, L. [5]; Rate 0.2500 kg/ha): 2.0
- herbicidal effect rating, SAGPY (Sagittaria pygmaea, L. [5]; Rate 0.5000 kg/ha): 9.0
- herbicidal effect rating, CYPIR (Cyperus iria [6]; 0.0313 kg/ha): 9.0
- herbicidal effect rating, CYPIR (Cyperus iria [6]; 0.0625 kg/ha): 9.0
- herbicidal effect rating, CYPIR (Cyperus iria [6]; 0.1250 kg/ha): 9.0
- herbicidal effect rating, CYPIR (Cyperus iria [6]; 0.2500 kg/ha): 9.0
- herbicidal effect rating, CYPIR (Cyperus iria [6]; 0.5000 kg/ha): 9.0
- herbicidal effect rating, CYPSE ([7]; Rate 0.0313 kg/ha): 0.0
- herbicidal effect rating, CYPSE ([7]; Rate 0.0625 kg/ha): 0.0
- herbicidal effect rating, CYPSE ([7]; Rate 0.1250 kg/ha): 2.0
- herbicidal effect rating, CYPSE ([7]; Rate 0.2500 kg/ha): 4.0
- herbicidal effect rating, CYPSE ([7]; Rate 0.5000 kg/ha): 2.0
- herbicidal effect rating, MOOVA ([8]; 0.0313 kg/ha): 9.0
- herbicidal effect rating, MOOVA ([8]; 0.0625 kg/ha): 9.0
- herbicidal effect rating, MOOVA ([8]; 0.1250 kg/ha): 9.0
- herbicidal effect rating, MOOVA ([8]; 0.2500 kg/ha): 9.0
- herbicidal effect rating, MOOVA ([8]; 0.5000 kg/ha): 9.0
- herbicidal effect rating, CYPSE ([9]; 0.0313 kg/ha): 0.0
- herbicidal effect rating, CYPSE ([9]; 0.0625 kg/ha): 2.0
- herbicidal effect rating, CYPSE ([9]; 0.1250 kg/ha): 7.0
- herbicidal effect rating, CYPSE ([9]; 0.2500 kg/ha): 7.0
- herbicidal effect rating, CYPSE ([9]; 0.5000 kg/ha): 7.0
- herbicidal effect rating, MOOVA ([10]; Rate 0.0313 kg/ha): 9.0
- herbicidal effect rating, MOOVA ([10]; Rate 0.0625 kg/ha): 9.0
- herbicidal effect rating, MOOVA ([10]; Rate 0.1250 kg/ha): 9.0
- herbicidal effect rating, MOOVA ([10]; Rate 0.2500 kg/ha): 9.0
- herbicidal effect rating, MOOVA ([10]; Rate 0.5000 kg/ha): 9.0
- herbicidal effect rating, CYPIR (Cyperus iria [11]; Rate 0.0313 kg/ha): 9.0
- herbicidal effect rating, CYPIR (Cyperus iria [11]; Rate 0.0625 kg/ha): 9.0
- herbicidal effect rating, CYPIR (Cyperus iria [11]; Rate 0.1250 kg/ha): 9.0
- herbicidal effect rating, CYPIR (Cyperus iria [11]; Rate 0.2500 kg/ha): 9.0
- herbicidal effect rating, CYPIR (Cyperus iria [11]; Rate 0.5000 kg/ha): 9.0
- herbicidal effect rating, ORYSAT (rice tolerance) ([12]; 0.0313 kg/ha): 4.0
- herbicidal effect rating, ORYSAT (rice tolerance) ([12]; 0.0625 kg/ha): 6.0
- herbicidal effect rating, ORYSAT (rice tolerance) ([12]; 0.1250 kg/ha): 7.0
- herbicidal effect rating, ORYSAT (rice tolerance) ([12]; 0.2500 kg/ha): 7.0
- herbicidal effect rating, ORYSAT (rice tolerance) ([12]; 0.5000 kg/ha): 9.0
